Source: ChEMBL document CHEMBL4118088, “C5-C6 Carbocyclic-Fused Iminothiadiazine Dioxides as BACE Inhibitors, Their Compositions, and Their Use” (ACS Med Chem Lett, 2017)

Columns and labels:
Beta-secretase 1 = Beta-secretase 1 (Homo sapiens, UniProt P56817); assay: Binding affinity to human BACE1 catalytic domain using QSY7-APPswe-Eu as substrate preincubated for 30 mins followed by substrate addition measured after 1.5 hrs by HTRF assay
Beta-secretase 2 = target: T1, Beta-secretase 2 (Homo sapiens, UniProt Q9Y5Z0); assay: Binding affinity to human autoBACE2 using QSY7-APPswe-Eu as substrate preincubated for 30 mins followed by substrate addition measured after 90 mins by HTRF assay
T1 sequence (Q9Y5Z0 whole entry): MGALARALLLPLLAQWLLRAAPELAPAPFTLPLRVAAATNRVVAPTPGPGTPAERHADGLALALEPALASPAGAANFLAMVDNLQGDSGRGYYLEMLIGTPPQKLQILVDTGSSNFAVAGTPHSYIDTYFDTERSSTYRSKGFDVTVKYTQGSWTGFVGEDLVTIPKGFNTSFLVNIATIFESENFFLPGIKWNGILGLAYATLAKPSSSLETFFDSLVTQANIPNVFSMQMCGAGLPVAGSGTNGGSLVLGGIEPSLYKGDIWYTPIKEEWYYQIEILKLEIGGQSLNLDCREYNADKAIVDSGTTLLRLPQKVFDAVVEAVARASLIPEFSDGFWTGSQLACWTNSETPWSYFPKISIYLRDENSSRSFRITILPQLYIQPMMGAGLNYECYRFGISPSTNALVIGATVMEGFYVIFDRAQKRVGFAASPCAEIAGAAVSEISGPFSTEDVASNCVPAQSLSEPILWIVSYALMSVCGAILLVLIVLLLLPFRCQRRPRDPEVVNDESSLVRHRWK

Beta-secretase 1, sequence (P56817 whole entry, the tested form may be a part): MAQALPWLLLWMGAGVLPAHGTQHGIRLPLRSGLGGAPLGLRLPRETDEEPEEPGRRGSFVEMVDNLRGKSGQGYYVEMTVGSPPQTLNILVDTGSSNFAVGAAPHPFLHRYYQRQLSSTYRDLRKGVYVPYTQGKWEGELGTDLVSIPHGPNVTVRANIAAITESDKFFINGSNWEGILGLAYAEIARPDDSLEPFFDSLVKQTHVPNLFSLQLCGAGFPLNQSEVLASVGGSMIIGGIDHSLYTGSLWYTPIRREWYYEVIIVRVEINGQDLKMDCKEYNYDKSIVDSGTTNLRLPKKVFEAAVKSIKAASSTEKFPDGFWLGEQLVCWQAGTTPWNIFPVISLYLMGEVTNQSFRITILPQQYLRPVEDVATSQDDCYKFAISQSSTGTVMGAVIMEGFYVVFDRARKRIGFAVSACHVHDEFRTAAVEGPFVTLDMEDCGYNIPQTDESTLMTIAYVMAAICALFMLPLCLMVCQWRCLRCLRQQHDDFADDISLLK

Row | Ki (Beta-secretase 1) [nM] | Ki (Beta-secretase 2) [nM] | Structure (SMILES)
1 | 36 | 9 | COc1cnc2c(C(=O)Nc3ccc(F)c([C@]45CCC[C@H]4S(=O)(=O)N(C)C(=N)N5)c3)nccc2n1
2 | 4 | 0.5 | CN1C(=N)N[C@@]2(c3cc(NC(=O)c4nccc5cc(Br)cnc45)ccc3F)CCC[C@H]2S1(=O)=O
3 | 31 | 10 | COc1cnc2c(C(=O)Nc3ccc(F)c([C@]45CCC[C@H]4S(=O)(=O)N(C)C(=N)N5)c3)nccc2c1
4 | 206 | 198 | COc1cnc2c(C(=O)Nc3ccc(F)c([C@]45CCC[C@H]4S(=O)(=O)N(C)C(=N)N5)c3)ccnc2c1
